# According to BindingDB's records for doi:10.1021/jm500763m (Beijing Institute of Pharmacology & Toxicology, 2014):
# Square brackets hold non-standard residues; d marks the D form. Peptide text beside a SMILES is read from it. * marks the point of attachment. X1 = C=CCOC(=O)[C@]12CC[C@@H](C(=C)C)[C@@H]1[C@H]1CC[C@@H]3[C@@]4(C)CC[C@H](OC(=O)CCc5cn(CC(=O)*)nn5)C(C)(C)[C@@H]4CC[C@@]3(C)[C@]1(C)CC2; X8 = C[C@H]1[C@H](C)CC[C@]2(C(=O)O)CC[C@]3(C)C(=CC[C@@H]4[C@@]5(C)CC[C@H](OC(=O)CCc6cn(CC(=O)*)nn6)C(C)(C)[C@@H]5CC[C@]43C)[C@H]12; X7 = C[C@H]1[C@H](C)CC[C@]2(C(=O)OCc3cn(CC(=O)*)nn3)CC[C@]3(C)C(=CC[C@@H]4[C@@]5(C)CC[C@H](O)C(C)(C)[C@@H]5CC[C@]43C)[C@H]12; X10 = CC1(C)CC[C@]2(C(=O)OCc3cn(CC(=O)*)nn3)CC[C@]3(C)C(=CC[C@@H]4[C@@]5(C)CC[C@H](O)C(C)(C)[C@@H]5CC[C@]43C)[C@@H]2C1; X11 = CCCc1cn(CC(=O)*)nn1; βAla = NCCC(=O)O
# Tests used:
# [1] = Inhibition of HIV1 gp41-induced cell-cell fusion between viral envelope expressing human HL2/3 cells to CD4/CCR5 receptor expressing TZM-bl cells after 6 to 8 hrs by luciferase assay
# [2] = Inhibition of HIV1 gp41-induced cell-cell fusion between viral envelope expressing human HL2/3 cells to CD4/CCR5 receptor expressing TZM-bl cells compound preincubated for 1 hr measured after 48 hrs by prime/wash assay
# [3] = Inhibition of HIV1 gp41-induced cell-cell fusion between viral envelope expressing human HL2/3 cells to CD4/CCR5 receptor expressing TZM-bl cells compound preincubated for 1 hr followed by wash out measured after 48 hrs by prime/wash assay
Compound,EC50 [1] [nM],EC50 [2] [nM],EC50 [3] [nM]
C=CCOC(=O)[C@]12CC[C@@H](C(=C)C)[C@@H]1[C@H]1CC[C@@H]3[C@@]4(C)CC[C@H](OC(=O)CCc5cn(CC(=O)NCCCC[C@H](NC(=O)CCNC(=O)[C@H](CC(C)C)NC(=O)[C@H](CC(C)C)NC(=O)[C@H](CCC(=O)O)NC(=O)[C@H](CCC(N)=O)NC(=O)[C@H](CCC(=O)O)NC(=O)[C@H](CC(N)=O)NC(=O)[C@H](CCCCN)NC(=O)[C@H](CCC(=O)O)NC(=O)[C@H](CCC(N)=O)NC(=O)[C@H](CCC(N)=O)NC(=O)[C@H](CC(N)=O)NC(=O)[C@H](CCC(N)=O)NC(=O)[C@H](CO)NC(=O)[C@H](CCC(=O)O)NC(=O)[C@H](CCC(=O)O)NC(=O)[C@@H](NC(=O)[C@H](CC(C)C)NC(=O)[C@H](CO)NC(=O)[C@H](Cc6cnc[nH]6)NC(=O)[C@@H](NC(=O)[C@H](CC(C)C)NC(=O)[C@H](CO)NC(=O)[C@@H](NC(=O)[C@H](Cc6ccc(O)cc6)NC(=O)[C@H](CC(N)=O)NC(=O)[C@H](CC(N)=O)NC(C)=O)[C@@H](C)O)[C@@H](C)CC)[C@@H](C)CC)C(N)=O)nn5)C(C)(C)[C@@H]4CC[C@@]3(C)[C@]1(C)CC2 (Ac-NNYTSLIHSLIEESQNQQEKNEQELL[βAla]K(X1)-NH2),3.9,13,–
CC[C@H](C)[C@H](NC(=O)[C@H](CC(C)C)NC(=O)[C@H](CO)NC(=O)[C@H](Cc1cnc[nH]1)NC(=O)[C@@H](NC(=O)[C@H](CC(C)C)NC(=O)[C@H](CO)NC(=O)[C@@H](NC(=O)[C@H](Cc1ccc(O)cc1)NC(=O)[C@H](CC(N)=O)NC(=O)[C@H](CC(N)=O)NC(=O)CCNC(=O)Cn1cc(COC(=O)[C@]23CC[C@@H](C)[C@H](C)[C@H]2C2=CC[C@@H]4[C@@]5(C)CC[C@H](O)C(C)(C)[C@@H]5CC[C@@]4(C)[C@]2(C)CC3)nn1)[C@@H](C)O)[C@@H](C)CC)C(=O)N[C@@H](CCC(=O)O)C(=O)N[C@@H](CCC(=O)O)C(=O)N[C@@H](CO)C(=O)N[C@@H](CCC(N)=O)C(=O)N[C@@H](CC(N)=O)C(=O)N[C@@H](CCC(N)=O)C(=O)N[C@@H](CCC(N)=O)C(=O)N[C@@H](CCC(=O)O)C(=O)N[C@@H](CCCCN)C(=O)N[C@@H](CC(N)=O)C(=O)N[C@@H](CCC(=O)O)C(=O)N[C@@H](CCC(N)=O)C(=O)N[C@@H](CCC(=O)O)C(=O)N[C@@H](CC(C)C)C(=O)N[C@@H](CC(C)C)C(N)=O ({X7-βAla}-NNYTSLIHSLIEESQNQQEKNEQELL-NH2),145,–,–
CC[C@H](C)[C@H](NC(=O)[C@H](CC(C)C)NC(=O)[C@H](CO)NC(=O)[C@H](Cc1cnc[nH]1)NC(=O)[C@@H](NC(=O)[C@H](CC(C)C)NC(=O)[C@H](CO)NC(=O)[C@@H](NC(=O)[C@H](Cc1ccc(O)cc1)NC(=O)[C@H](CC(N)=O)NC(=O)[C@H](CC(N)=O)NC(=O)CCNC(=O)Cn1cc(CCC(=O)O[C@H]2CC[C@]3(C)[C@H]4CC=C5[C@@H]6[C@@H](C)[C@H](C)CC[C@]6(C(=O)O)CC[C@@]5(C)[C@]4(C)CC[C@H]3C2(C)C)nn1)[C@@H](C)O)[C@@H](C)CC)C(=O)N[C@@H](CCC(=O)O)C(=O)N[C@@H](CCC(=O)O)C(=O)N[C@@H](CO)C(=O)N[C@@H](CCC(N)=O)C(=O)N[C@@H](CC(N)=O)C(=O)N[C@@H](CCC(N)=O)C(=O)N[C@@H](CCC(N)=O)C(=O)N[C@@H](CCC(=O)O)C(=O)N[C@@H](CCCCN)C(=O)N[C@@H](CC(N)=O)C(=O)N[C@@H](CCC(=O)O)C(=O)N[C@@H](CCC(N)=O)C(=O)N[C@@H](CCC(=O)O)C(=O)N[C@@H](CC(C)C)C(=O)N[C@@H](CC(C)C)C(N)=O ({X8-βAla}-NNYTSLIHSLIEESQNQQEKNEQELL-NH2),52,–,–
CC[C@H](C)[C@H](NC(=O)[C@H](CC(C)C)NC(=O)[C@H](CO)NC(=O)[C@H](Cc1cnc[nH]1)NC(=O)[C@@H](NC(=O)[C@H](CC(C)C)NC(=O)[C@H](CO)NC(=O)[C@@H](NC(=O)[C@H](Cc1ccc(O)cc1)NC(=O)[C@H](CC(N)=O)NC(=O)[C@H](CC(N)=O)NC(=O)CCNC(=O)Cn1cc(COC(=O)[C@]23CCC(C)(C)C[C@H]2C2=CC[C@@H]4[C@@]5(C)CC[C@H](O)C(C)(C)[C@@H]5CC[C@@]4(C)[C@]2(C)CC3)nn1)[C@@H](C)O)[C@@H](C)CC)C(=O)N[C@@H](CCC(=O)O)C(=O)N[C@@H](CCC(=O)O)C(=O)N[C@@H](CO)C(=O)N[C@@H](CCC(N)=O)C(=O)N[C@@H](CC(N)=O)C(=O)N[C@@H](CCC(N)=O)C(=O)N[C@@H](CCC(N)=O)C(=O)N[C@@H](CCC(=O)O)C(=O)N[C@@H](CCCCN)C(=O)N[C@@H](CC(N)=O)C(=O)N[C@@H](CCC(=O)O)C(=O)N[C@@H](CCC(N)=O)C(=O)N[C@@H](CCC(=O)O)C(=O)N[C@@H](CC(C)C)C(=O)N[C@@H](CC(C)C)C(N)=O ({X10-βAla}-NNYTSLIHSLIEESQNQQEKNEQELL-NH2),176,–,–
CCCc1cn(CC(=O)NCCC(=O)N[C@@H](CC(N)=O)C(=O)N[C@@H](CC(N)=O)C(=O)N[C@@H](Cc2ccc(O)cc2)C(=O)N[C@H](C(=O)N[C@@H](CO)C(=O)N[C@@H](CC(C)C)C(=O)N[C@H](C(=O)N[C@@H](Cc2cnc[nH]2)C(=O)N[C@@H](CO)C(=O)N[C@@H](CC(C)C)C(=O)N[C@H](C(=O)N[C@@H](CCC(=O)O)C(=O)N[C@@H](CCC(=O)O)C(=O)N[C@@H](CO)C(=O)N[C@@H](CCC(N)=O)C(=O)N[C@@H](CC(N)=O)C(=O)N[C@@H](CCC(N)=O)C(=O)N[C@@H](CCC(N)=O)C(=O)N[C@@H](CCC(=O)O)C(=O)N[C@@H](CCCCN)C(=O)N[C@@H](CC(N)=O)C(=O)N[C@@H](CCC(=O)O)C(=O)N[C@@H](CCC(N)=O)C(=O)N[C@@H](CCC(=O)O)C(=O)N[C@@H](CC(C)C)C(=O)N[C@@H](CC(C)C)C(N)=O)[C@@H](C)CC)[C@@H](C)CC)[C@@H](C)O)nn1 ({X11-βAla}-NNYTSLIHSLIEESQNQQEKNEQELL-NH2),3580,–,–
C[C@H]1[C@H](C)CC[C@]2(C(=O)O)CC[C@]3(C)C(=CC[C@@H]4[C@@]5(C)CC[C@H](O)C(C)(C)[C@@H]5CC[C@]43C)[C@H]12 [3beta-hydroxyurs-12-en-28-oic acid],> 100000,–,–
CC1(C)CC[C@]2(C(=O)O)CC[C@]3(C)C(=CC[C@@H]4[C@@]5(C)CC[C@H](O)C(C)(C)[C@@H]5CC[C@]43C)[C@@H]2C1 [Oleanolic acid (OA)(Compound 1)],> 100000,–,–
enfuvirtide,10,14,542
